Experimental data taken from patent US9402821B2, “Methods and pharmaceutical compositions for treatment of cystic fibrosis” (INSERM (Institut National de la sante et de la Recherche …, priority 2012, dated 2016).
Entries after “also recorded” stand apart in the source; their conditions may differ.

Key:
[1] = tested on: NF-κB transcriptional activity; assay: NF-κB firefly luciferase reporter assay, TNFα-stimulated cells; type: cell-based; settings: TNFα 10 ng/ml; BEAS-2B and HeLa cells with wt or deltaF508-CFTR (FIGS. 1A, B)
Description: All cells were transiently transfected by NF-κB firefly luciferase reporter and renilla luciferase reference. A. HeLa control cells (Ctr) were pre-treated with diluent (0.5%) or different doses of sulindac for 1 h and stimulated for 1 h with 10 ng/ml TNFα. After removal of TNFα, cells were incubated for 4 h with sulindac. Luciferase activity was analysed in protein extract. The NF-κB transcriptional activity in cells treated with sulindac+TNFα was expressed in percent of diluent+TNFα. B. Hela cells Wt, DF508 and Ctr were pre-treated with diluent (0.5%), ibuprofen (500 μM) or sulindac (500 μM) for 1 h and stimulated for 1 h with […] TNFα. After removal of TNFα, cells were incubated for 4 h with pharmacological treatment. The NF-κB transcriptional activity in cells treated with ibuprofen+TNFα and sulindac+TNFα was expressed in percent of diluent+TNFα. Results of at least three independent experiments, means±SEM. Unilateral paired t test: * p<0.02
All cells were pre-treated with diluent (0.5%), sulindac ([…]) or sulindac sulfone (250 μM) for 1 h and stimulated for 1 h with 10 ng/ml TNFα. […]
Plasmid Constructs and Transient Transfection To assay the transcriptional activity of NF-κB, pNF-κBLuc, a luciferase reporter plasmid containing five sequential NF-κB binding sites upstream of a minimum promoter element, NF-κB-Luc (Stratagene), was used. Transcriptional activity of the IL-8 promoter was evaluated with reporter constructs consisting of the IL-8 promoter (−133 bp from the transcription start site) fused to the Luciferase gene, kindly provided by Naofumi Mukaida. […]
Cells were lysed with the Passive Lysis Buffer (Promega), and luciferase activity in the cellular extracts was determined by the Dual Luciferase Assay System (Promega) using a luminometer (Tristar; Berthold). The results were normalized to those obtained with the Renilla luciferase reference plasmid used to control the transfection efficiency, and the values were expressed as luminescence intensity (Luciferase/Renilla). […]
The transcriptional activity of NF-κB and IL-8 promoter was measured as described before. […]

[2] = tested on: C57BL/6J mice; assay: LPS-induced lung inflammation mouse model, chemokines in BAL fluid by ELISA; type: in vivo; settings: sulindac 40 mg/kg i.p. 1 h before intratracheal LPS 5 mg/kg
Description: A. Protocol for lung inflammation mouse models. Lung inflammation was induced by two intra tracheal instillation of LPS (5 mg/kg), 24 h and 6 h prior sacrifice. Sulindac (40 mg/kg) or diluents were administered by intraperitoneal injection 1 h before LPS instillation. B. Mouse macrophage inflammatory protein (MIP-2) was monitored in BAL fluid by ELISA assay. LPS-stimulated MIP-2 production was inhibited by sulindac.
Male C57BL/6J mice (8-10 wk old) were treated by intraperitoneal (IP) injection of sulindac (40 mg/kg) or vehicle one hour before the time of endotoxin administration which caused lung injury. Lung inflammation was induced by LPS from E. coli (Sigma) prepared in saline and administered by injection intra-tracheal. In order to track at a single time point after LPS challenge both the early humoral and the late cell infiltrating components of the inflammatory response, a volume of 50 μl LPS solution (5 mg/kg) was administered at two consecutive doses with a 18 h interval between doses. This challenge method enables to track both cytokine and cellular responses to induction of inflammation. […] The chemokines keratinocyte chemoattractant (KC) and mouse macrophage inflammatory protein (MIP-2) were monitored in BAL fluid following the corresponding manufacturers' protocols using a standard sandwich enzyme-linked immune absorbent assay (ELISA, R&D Systems).

[3] = tested on: AP-1 transcriptional activity; assay: AP-1 firefly luciferase reporter assay, TNFα-stimulated HeLa cells; type: cell-based; settings: 500 μM, TNFα 10 ng/ml
Description: HeLa cells were transiently transfected by AP-1 firefly luciferase reporter and renilla luciferase reference. HeLa control cells were pre-treated with diluent (0.5%), ibuprofen (500 μM) or sulindac (500 μM) for 1 h and stimulated for 1 h with 10 ng/ml TNFα. After removal of TNFα, cells were incubated for 4 h with pharmacological treatment. The AP-1 transcriptional activity in cells treated with ibuprofen+TNFα and sulindac +TNFα was expressed in percent of diluent+TNFα. Results of three independent experiments, means±SEM. Unilateral paired t test: ** p<0.01. To assay the transcriptional activity of AP-1, pAP1Luc, a luciferase reporter plasmid containing five sequential AP-1 binding sites upstream of a minimum promoter element, was used. […] To normalize transfection efficiency, a renilla luciferase reporter construct (pRL-TK, Promega) was co-transfected with each of the firefly luciferase constructs. To induced AP-1 activity, cells were exposed to TNFα (10 ng/mL) for 1 hour. Cells were pre- and treated with sulindac, ibuprofen or vehicule control one hour before and four hours after this induction.

[4] = tested on: PPAR transcriptional activity; assay: PPAR firefly luciferase reporter assay (3 PPRE motifs) in HeLa cells; type: cell-based; settings: sulindac 100 μM, 24 h
Description: HeLa control cells were transiently transfected by PPAR firefly luciferase reporter (3 PPRE motifs) and renilla luciferase reference. Cells were treated with diluent (0.5%), ibuprofen (500 μM) or sulindac (100 μM) for 24 h. The PPAR transcriptional activity in cells treated with ibuprofen and sulindac was expressed in percent of diluents. Results of three independent experiments, means±SEM. Unilateral paired t test: ** p<0.01.
To assay the transcriptional activity of AP-1, pAP1Luc, a luciferase reporter plasmid containing five sequential AP-1 binding sites upstream of a minimum promoter element, was used. Transcriptional activity of PPAR was evaluated with reporter constructs with three sequential PPRE consensus sequences, binding PPAR factors. Transient transfection were realized as described before. To normalize transfection efficiency, a renilla luciferase reporter construct (pRL-TK, Promega) was co-transfected with each of the firefly luciferase constructs. To induced AP-1 activity, cells were exposed to TNFα (10 ng/mL) for 1 hour. Cells were pre- and treated with sulindac, ibuprofen or vehicule control one hour before and four hours after this induction. For PPAR activity, cells were treated with pharmacological drugs for 24 hours.
Luciferase assay was realized as described before.

CC1=C(CC(=O)O)c2cc(F)ccc2/C1=C\c1ccc([S+](C)[O-])cc1 (centres unmarked) [sulindac, (Z)-5-fluoro-2-methyl-1-[p-(methylsulfinyl)benzylidene]-indene-3-acetic acid]
transcriptional activity of NF-κB [1]: inhibits transcriptional activity of NF-κB
KC (keratinocyte-derived chemokine) in BAL fluid [2]: decreased the secretion of KC and MIP-2
MIP-2 in BAL fluid [2]: inhibited; also recorded: decreased the secretion of KC and MIP-2
AP-1 transcriptional activity induced by TNF [3]: causes a decrease in the induction
PPAR transcriptional activity [4]: increase in the transcriptional activity of PPAR
